This is an account of results in patent US20050215614A1, “Substituted indoles and their use as hcv inhibitors” (Rigel Pharmaceuticals, Inc., priority 2003, published 2005).

For the assay, the system named is HCV replicon. The assay can be described thus: HCV Replicon Assay (luciferase, 5-2 Luc replicon cells). Format: cell-based. The following applies: 5-2 Luc replicon cells (Huh7), 24-48 hours with compound, luciferase counts. As to the method:
Actively dividing 5-2 Luc replicon cells were seeded at the density of 5000-7500 cells/well in the volume of 90 μl/well into 96 well plate(s). The cells were then incubated at 37° C. and 5% CO2 for 24 hours. The 5-2 cells are replicon cells licensed from Ralf Bartenschlager (Germany) and have a self-replicating RNA molecule in the Huh7 cell; the RNA contains HCV non-structural proteins that make the self-replication possible.
Various concentrations of compounds (in the volume of 10 μl) were added into each well 24 hours after seeding the cells. The cells were incubated for another 24-48 hours before luciferase assay.
After incubating the 5-2 Luc replicon cells with the compounds for 24-48 hours, media were aspirated from each well and Bright-Glo (Promega) luciferase assay reagents were added to each well according to the manufacturer′s manual. Briefly, the Bright-Glo reagent was diluted with equal volume of PBS and an aliquote (100 μl) was added to each well. After incubating the plate at room temperature for 5 minutes, luciferase counts were taken using a luminometer.
Regarding `Cc1cc2cc(NC(=O)Cc3cccnc3)ccc2n1C(=O)c1c(Cl)cccc1Cl` [Compound 16a-13, 1-(2′,6′-Dichlorobenzoyl)-5-(3-pyridyl-2-acetamido)-2-methylindole], the “Activity (concentration of inhibitory activity)” value is “a (“a” indicates inhibitory activity at a concentration of less than 10 micromolar)”.

Consider `Cc1cc2cc(NC(=O)C3CCC(=O)C3)ccc2n1C(=O)c1c(Cl)cccc1Cl` (stereo not shown) [Compound 16a-14], for which the “Activity (concentration of inhibitory activity)” value is reported as “a (“a” indicates inhibitory activity at a concentration of less than 10 micromolar)”.

Consider `COc1cccc(OC)c1C(=O)n1c(C)cc2cc(NC(=O)C3CC3)ccc21` [Compound 16b4, 5-Cyclopropanecarbonylamino-1-(2′,6′-dimethoxybenzoyl)-2-methylindole], for which the “Activity (concentration of inhibitory activity)” value was “a (“a” indicates inhibitory activity at a concentration of less than 10 micromolar)”.

With `COc1cccc(OC)c1C(=O)n1c(C)cc2cc(NC(=O)C3CCCC3)ccc21` [Compound 16b-1, 5-Cyclopentanecarbonylamino-1-(2′,6′-dimethoxybenzoyl)-2-methylindole], the “Activity (concentration of inhibitory activity)” value was “a (“a” indicates inhibitory activity at a concentration of less than 10 micromolar)”. Consider `COc1cccc(OC)c1C(=O)n1c(C)cc2cc(NC(=O)C3CCCCC3)ccc21` [Compound 16b-2, 5-Cyclohexanecarbonylamino-1 (2′,6′-dimethoxybenzoyl)-2-methylindole], for which the “Activity (concentration of inhibitory activity)” value is “a (“a” indicates inhibitory activity at a concentration of less than 10 micromolar)”.

For the molecule `COc1cccc(OC)c1C(=O)n1c(C)cc2cc(NC(=O)C3CCC3)ccc21` [Compound 16b-3, 5-Cyclobutanecarbonylamino-1-(2′,6′-dimethoxybenzoyl)-2-methylindole], the “Activity (concentration of inhibitory activity)” value is recorded as “a (“a” indicates inhibitory activity at a concentration of less than 10 micromolar)”.

Regarding `COc1cccc(OC)c1C(=O)n1c(C)cc2cc(NC(=O)c3cccnc3)ccc21` [Compound 16b-5, 1-(2′,6′-Dimethoxybenzoyl)-5-(3-pyridylcarbonyl)amino-2-methylindole], the “Activity (concentration of inhibitory activity)” value was “a (“a” indicates inhibitory activity at a concentration of less than 10 micromolar)”.

On to `COc1cccc(OC)c1C(=O)n1c(C)cc2cc(NC(=O)C3CCC(=O)C3)ccc21` (stereo not shown) [Compound 16b-6, 1-(2′,6′-Dimethoxybenzoyl)-5-(3-oxo-1-cyclopentanecarbonyl)amino-2-methylindole], for which the “Activity (concentration of inhibitory activity)” value is on record as “a (“a” indicates inhibitory activity at a concentration of less than 10 micromolar)”. As to `Cc1cc2cc(NC(=O)C3CCCC3)ccc2n1C(=O)c1c(F)cccc1C(F)(F)F` [Compound 16c-1, 5-Cyclopentanecarbonylamino-1-(2′-fluoro-6′-trifluoromethylbenzoyl)-2-methylindole], the “Activity (concentration of inhibitory activity)” value is given as “a (“a” indicates inhibitory activity at a concentration of less than 10 micromolar)”.

As for `Cc1cc2cc(NC(=O)C3CCCCC3)ccc2n1C(=O)c1c(F)cccc1C(F)(F)F` [Compound 16c-2, 5-Cyclohexanecarbonylamino-1-(2′-fluoro-6′-trifluoromethylbenzoyl)-2-methylindole], the “Activity (concentration of inhibitory activity)” value is listed as “a (“a” indicates inhibitory activity at a concentration of less than 10 micromolar)”. Under `Cc1cc2cc(NC(=O)C3CCC3)ccc2n1C(=O)c1c(F)cccc1C(F)(F)F` [Compound 16c-3, 5-Cyclobutanecarbonylamino-1-(2′-fluoro-6′-trifluoromethylbenzoyl)-2-methylindole] stands “a (“a” indicates inhibitory activity at a concentration of less than 10 micromolar)”. With `Cc1cc2cc(NC(=O)C3CC3)ccc2n1C(=O)c1c(F)cccc1C(F)(F)F` [Compound 16c-4, 5-Cyclopropanecarbonylamino-1-(2′fluoro-6′-trifluoromethylbenzoyl)-2-methylindole] the entry was “a (“a” indicates inhibitory activity at a concentration of less than 10 micromolar)”; with `Cc1cc2cc(NC(=O)C3CCC(=O)C3)ccc2n1C(=O)c1c(F)cccc1C(F)(F)F` (stereo not shown) [Compound 16c-5, 1-(2′-Fluoro-6′-trifluoromethylbenzoyl)-5-(3-oxo-1-cyclopentanecarbonyl)amino-2-methylindole], “a (“a” indicates inhibitory activity at a concentration of less than 10 micromolar)”. Under `Cc1cc2cc(NC(=O)C3CCCC3)ccc2n1C(=O)c1c(F)cccc1F` [Compound 16d-1, 5-Cyclopentanecarbonylamino-1-(2′,6′-difluorobenzoyl)-2-methylindole] stands “b (“b” indicates activity is at a concentration greater than 10 micromolar)”; under `Cc1cc2cc(NC(=O)C3CCC3)ccc2n1C(=O)c1c(F)cccc1F` [Compound 16d-2, 5-Cyclobutanecarbonylamino-1-(2′,6′-difluorobenzoyl)-2-methylindole], “b (“b” indicates activity is at a concentration greater than 10 micromolar)”. Turning to `Cc1cc2cc(NC(=O)C3CC3)ccc2n1C(=O)c1c(F)cccc1F` [Compound 16d-3, 5-Cyclopropanecarbonylamino-1-(2′,6′-difluorobenzoyl)-2-methylindole], the “Activity (concentration of inhibitory activity)” value is recorded as “b (“b” indicates activity is at a concentration greater than 10 micromolar)”.

Regarding `Cc1cc2cc(NC(=O)C3CCCC3)ccc2n1C(=O)c1c(F)cccc1Cl` [Compound 16e-1, 1-(2′-Chloro-6′-fluorobenzoyl)-5-cyclopentanecarbonylamino-2-methylindole], the “Activity (concentration of inhibitory activity)” value is recorded as “a (“a” indicates inhibitory activity at a concentration of less than 10 micromolar)”. With `Cc1cc2cc(NC(=O)C3CCCCC3)ccc2n1C(=O)c1c(F)cccc1Cl` [Compound 16e-2, 1-(2′-Chloro-6′-fluorobenzoyl)-5-Cyclohexanecarbonylamino-2-methylindole] the entry was “a (“a” indicates inhibitory activity at a concentration of less than 10 micromolar)”. Under `Cc1cc2cc(NC(=O)C3CCC3)ccc2n1C(=O)c1c(F)cccc1Cl` [Compound 16e-3, 1-(2′-Chloro-6′-fluorobenzoyl)-5-cyclobutanecarbonylamino-2-methylindole] stands “a (“a” indicates inhibitory activity at a concentration of less than 10 micromolar)”; under `Cc1cc2cc(NC(=O)C3CC3)ccc2n1C(=O)c1c(F)cccc1Cl` [Compound 16e-4, 1-(2′-Chloro-6′-fluorobenzoyl)-5-cyclopropanecarbonylamino-2-methylindole], “a (“a” indicates inhibitory activity at a concentration of less than 10 micromolar)”. With `Cc1cc2cc(NC(=O)C3CCC(=O)C3)ccc2n1C(=O)c1c(F)cccc1Cl` (stereo not shown) [Compound 16e-5, 1-(2′-Chloro-6′-fluorobenzoyl)-5-(3-oxo-1-cyclopentanecarbonyl)amino-2-methylindole], the “Activity (concentration of inhibitory activity)” value is on record as “a (“a” indicates inhibitory activity at a concentration of less than 10 micromolar)”. Consider `Cc1cccc(C)c1C(=O)n1c(C)cc2cc(NC(=O)C3CCCC3)ccc21` [Compound 16f-1, 5-Cyclopentanecarbonylamino-1-(2′,6′-dimethylbenzoyl)-2-methylindole], for which the “Activity (concentration of inhibitory activity)” value was “a (“a” indicates inhibitory activity at a concentration of less than 10 micromolar)”. With `Cc1cccc(C)c1C(=O)n1c(C)cc2cc(NC(=O)C3CCCCC3)ccc21` [Compound 16f-2, 5-Cyclohexanecarbonylamino-1-(2′,6′-dimethylbenzoyl)-2-methylindole], the “Activity (concentration of inhibitory activity)” value is reported as “a (“a” indicates inhibitory activity at a concentration of less than 10 micromolar)”. As for `Cc1cccc(C)c1C(=O)n1c(C)cc2cc(NC(=O)C3CCC3)ccc21` [Compound 16f-3, 5-Cyclobutanecarbonylamino-1-(2′,6′-dimethylbenzoyl)-2-methylindole], the “Activity (concentration of inhibitory activity)” value was “a (“a” indicates inhibitory activity at a concentration of less than 10 micromolar)”. Under `Cc1cccc(C)c1C(=O)n1c(C)cc2cc(NC(=O)C3CC3)ccc21` [Compound 16f-4, 5-Cyclopropanecarbonylamino-1-(2′,6′-dimethylbenzoyl)-2-methylindole] stands “a (“a” indicates inhibitory activity at a concentration of less than 10 micromolar)”. `Cc1cccc(C)c1C(=O)n1c(C)cc2cc(NC(=O)C3CCC(=O)C3)ccc21` (stereo not shown) [Compound 16f-5, 1-(2′,6′-Dimethylbenzoyl)-5-(3-oxo-1-cyclopentanecarbonyl)amino-2-methylindole]: the “Activity (concentration of inhibitory activity)” value is on record as “a (“a” indicates inhibitory activity at a concentration of less than 10 micromolar)”. Under `Cc1cc2cc(NC(=O)C3CCCC3)ccc2n1C(=O)c1cc(Cl)nc(Cl)c1` [Compound 16g-1, 5-Cyclopentanecarbonylamino-l-(2′,6′-dichloro-4′-pyridylcarbonyl)-2-methylindole] stands “a (“a” indicates inhibitory activity at a concentration of less than 10 micromolar)”. In the case of `Cc1cc2cc(NC(=O)C3CC3)ccc2n1C(=O)c1cc(Cl)nc(Cl)c1` [Compound 16g-2, 5-Cyclopropanecarbonylamino-1-(2′,6′-dichloro-4′-pyridylcarbonyl)-2-methylindole], the “Activity (concentration of inhibitory activity)” value is reported as “a (“a” indicates inhibitory activity at a concentration of less than 10 micromolar)”.
